Data from a melting point compilation (Tetko et al.).

SMILES	melting point [°C]
S=C=Nc1ccc2c(c1)OCCO2	64 to 66
CC12CCC(=O)CC1CCC1C2CCC2(C)C1CCC21OCCO1 (centres undefined)	192 to 196
CCc1c(C)cc(C)cc1C	-16
Cc1cccc2cc3ccccc3cc12	85.5
CCOC(=O)C(=Nn1nnc2ccccc21)C(=O)OCC	100
CC(=O)c1c2c(c(C(C)=O)c3c1CCCN3)NCCC2	143
Cc1ccc(-c2csc(/C(C#N)=N\Nc3cccc([N+](=O)[O-])c3)n2)cc1	225
Cc1n[nH]c2c(=O)n(Cc3ccc(Cl)cc3)c(C)nc12	218 to 220
N#Cc1ccc(Cl)cc1N	161
CN(C)C1CSSC1	177
O=C(O)c1cc(C(=O)O)cc(C(=O)O)c1	380
CC1CCC(C)(COC(=O)C2C(=O)C3(C)CCC2C3(C)C)C1(C)C (centres undefined)	146
Nc1ncnc2[nH]ncc12	325
COc1ccc(NC(=O)C(C(F)(F)F)C(F)(F)F)cc1	185 to 187
Cc1nc(-c2ccccc2)sc1C(=O)NN	168 to 170
Nc1ccc(Cl)c(C(=O)O)c1	188
O=[N+]([O-])OC(CO)CO	54
Cn1c(=O)c2c(nc(Cl)n2CC(=O)O)n(C)c1=O	198 to 199
O=[N+]([O-])c1ccc(/C=C\c2ccccc2[N+](=O)[O-])cc1	138 to 139
O=C1OC(=O)c2cc([N+](=O)[O-])cc3cccc1c23	247 to 254
O=C(C1=NOC2C(=O)N(c3ccc(Br)cc3)C(=O)C12)c1ccc2ccccc2c1 (centres undefined)	186
O=C1NC(=O)C([N+](=O)[O-])C(=O)N1	180
CC(=O)c1ccc(C=O)s1	105 to 106
CC(=O)Nc1ccc(F)cc1F	122
Nc1ccc(C=C/C(=N/O)c2ccccc2)cc1	138 to 139
Cc1c(C)c(C)c(N)c(C)c1C	152

SMILES	melting point [°C]
COc1ccccc1Cl	-26.8
Cc1cc(C)n2nc(N)c(/N=N/c3cc(Cl)c(Cl)cc3Cl)c2n1	295
CCOC(=O)c1c(-c2ccccc2)csc1NC(=O)c1ccc(Cl)cc1Cl	149 to 150
CC(C)(C)OC(=O)NC1(C(=O)O)CCCCC1	177
N#CC(=Cc1ccc(Cl)cc1)C(N)=O	100
CC1=CC(C)(C)Nc2ccccc21	26.5
O=S(=O)(Cl)c1ccc2c(c1)CCO2	84 to 85
O=[N+]([O-])c1ccccc1N=C=S	75
CC(=O)c1cc(-c2ccc(Cl)cc2)oc1C	114 to 115
O=S1(=O)CCN(Cc2cccs2)CC1	126 to 128
CC(C)(C)OC(=O)N1CCC2(CC1)NC(=O)c1cc(Br)ccc1O2	226 to 227
O=[N+]([O-])c1ccc(-c2cn3c(n2)sc2ccccc23)cc1	285 to 286
N#CC(C#N)=C(CC=O)c1ccc(Cl)cc1	100
CCC(Br)C(=O)O (centres undefined)	-4
Clc1ccc2c(c1)c1cc(Cl)ccc1n2CC1CO1 (centres undefined)	143 to 144
Ic1cccc2nsnc12	96 to 97
CC(C)(C(=O)O)n1nnc2ccccc21	182
Cc1ccc(-c2ccc3c(c2)C=CC(=C2C(=O)c4ccccc4C2=O)N3)cc1	241 to 242
c1ccc(N=Nc2ccc(Nc3ccccc3)cc2)cc1	90
CC(C)(C)N(NC(=O)c1ccccc1)C(=O)c1ccccc1C(F)(F)F	172
O=Cc1ccccc1-c1cccnc1	68 to 69
Cc1c2c(c(CCl)c3c1CC3)CC2	73
Cc1ccc(C(=O)N(NC(=O)c2ccccc2)C(C)(C)C)cc1	188
COc1ccc(-c2csc(/C(C#N)=C\c3cccnc3)n2)cc1	235
CCOC(=O)NC(=O)CCl	127 to 131
N#CN=C(Oc1ccccc1)Oc1ccccc1	157

SMILES	melting point [°C]
CCCCCCCCC=O	-18
Cc1nc(N)ccc1Br	82 to 83
Cc1nc(-c2ccc(N)cc2)cs1	140 to 141
c1cnc(-c2noc(C3CCNCC3)n2)cn1	87 to 89
c1cc(CCc2ccncc2)ccn1	107 to 113
CC(C)(C)NCC(O)COc1ccccc1C#N (centres undefined)	164
COc1cc2nc(Cl)nc(Cl)c2cc1OC	177
C=Cc1ccccc1-c1cn[nH]c1	114
Cc1c(C(=O)O)cnn1-c1ccc(F)cc1	165 to 166
CC(CC(=O)O)c1ccc(C(=O)O)cc1 (centres undefined)	227 to 229
O=C(CS)Nc1ccc2ccccc2c1	112
FC(F)(F)c1cc(Cl)cc(Cl)c1	-13 to -12
Cc1c(-c2ccccc2)n(C)c2ccccc12	69
Nc1c(Cl)cc(F)cc1Br	56
FC(F)(F)C(F)(F)C(F)(F)C(F)(F)C(F)(F)C(F)(F)C(F)(F)C(F)(F)CCI	82.5
CSc1nc2[nH]c(Cc3ccccc3)nc(=O)c2n1C	286
CNc1ccccc1OC	30 to 33
Ic1cc(I)c(I)c(I)c1	148
COc1ccc(C=NC2=NC(C(F)(F)F)N=N2)cc1 (centres undefined)	172
NC(=O)C1CCCNC1 (centres undefined)	102 to 108
NC(=O)c1cc([N+](=O)[O-])ccc1Cl	179
O=[N+]([O-])c1ccc(NN=Cc2cccc3c(Br)ccc([N+](=O)[O-])c23)c([N+](=O)[O-])c1	243 to 244
OCc1ccc(-n2ccnc2)cc1	87 to 89
O=[N+]([O-])c1cccc2cccc(Cl)c12	95.8
C[Si](C)(CCCC(=O)O)O[Si](C)(C)CCCC(=O)O	47
COc1c(Cl)c(Cl)c(Cl)c(Cl)c1Cl	108

SMILES	melting point [°C]
CC(=O)OCC1OC(Oc2ccc([N+](=O)[O-])cc2)C(OC(C)=O)C(OC(C)=O)C1OC(C)=O (centres undefined)	177
CC/C(=N\O)C1=CC2(C)CCC1C2(C)C (centres undefined)	107
O=C(O)c1cnc2ccc(OC(F)(F)F)cc2c1O	245
Cc1ccc([N+](=O)[O-])c(CCl)c1	41 to 47
CC(=O)Oc1c(-c2cccc(-c3[nH]c4cc([N+](=O)[O-])ccc4c3OC(C)=O)c2)[nH]c2cc([N+](=O)[O-])ccc12	304
COc1ccc(C(=O)CCC(=O)O)cc1F	171
CC1(C)N=C(N)C(C)(C)N1O	225 to 228
CCC(N)Cc1c[nH]c2ccccc12 (centres undefined)	97
C[C@]12CC[C@H]3[C@@H](CCC4=CC(=O)CC[C@@]43C)[C@@H]1CC[C@@H]2C(=O)O	254
C#CCC	-126
CCCCCCC(O)CC (centres undefined)	22
CCCCOC(=O)C1(O)c2ccccc2-c2ccccc21	71
N#CC1=C(N)n2nc(C(F)(F)F)nc2NC1c1ccco1 (centres undefined)	260
N#Cc1ccc([N+](=O)[O-])cc1C(F)(F)F	52 to 54
Nc1ncc(S(=O)(=O)c2ccc([N+](=O)[O-])cc2)s1	222 to 226
O=Cc1ccc(N2CCOCC2)s1	126 to 128
Cc1cc([N+](=O)[O-])ccc1N=C=S	82 to 84
CCN(CC)c1ccc(N)cc1	27
CCCCCCCCCCCCCCc1ccccc1	16
Nc1ccc(C(=O)O)nc1	218
CC(=O)c1ccn(S(=O)(=O)c2ccccc2)c1	89 to 92
NCCNCCO	-28
CCCCCCCCCCCCCCCl	4.9
CC(=O)c1nn(-c2cccc([N+](=O)[O-])c2)c(=NC(=O)c2ccccc2)s1	196
FC(F)(F)c1cccc(C(c2ccccc2)(c2ccccc2)n2cncn2)c1	132
COc1cc2c(cc1OC)C(CCc1ccc(Cl)cc1)N(C)CC2 (centres undefined)	110

SMILES	melting point [°C]
COC(=O)C(Cc1ccc(O)cc1)NC(=O)OC(C)(C)C (centres undefined)	107
O=C1C(C(O)c2c(Cl)cccc2Cl)C(C(F)(F)F)=NN1c1ccccc1 (centres undefined)	196
CC(C)N1C(=O)N(c2ccccc2)CSC1=NC(C)(C)C	105
COC(=O)C1=C(C(=O)OC)Cc2cc3c(cc2C1)CC(C(=O)OC)=C(C(=O)OC)C3	209
CC(=Cc1ccccc1)C(=O)Cl	45 to 46
O=C1Nc2ccc(Cl)cc2C(c2ccccc2Cl)=NC1O (centres undefined)	166
O=C(Cl)c1ccc2c(c1)C(=O)OC2=O	68
CC(C)(C(=O)O)C(C)(C)C(=O)O	200
CCN(CC)CC#CCOC(=O)C(O)(c1ccccc1)C1CCCCC1 (centres undefined)	130
Clc1nncc2ccccc12	111
N#CCc1ccc(OCc2ccccc2)cc1	68
CCN(C(=O)N(CC)c1ccccc1)c1ccccc1	79
CCOC(=O)C(CCC#N)(CCC#N)C(=O)OCC	62
O=C(O)CCCC(=O)c1cccs1	96
Clc1ncnc2ccsc12	125 to 126
Nc1cccc(I)c1	33
Cn1nc(-c2ccc(S(=O)(=O)Cl)s2)cc1C(F)(F)F	83 to 86
O=C(O)c1ccc(N2C(=O)C3ON=C(C(=O)c4cccs4)C3C2=O)cc1 (centres undefined)	208
CC(C)S(=O)(=O)O	-37
O=Cc1ccc(-n2cccc2)cc1	94 to 95
CCOC(=O)c1cc(-c2ccco2)[nH]n1	137 to 138
C/C=C/Br	-77
COC(=O)C(C)(C)C(CC(=O)O)c1ccccc1 (centres undefined)	111
Cc1cc(C(F)(F)F)n2nc(N)c(/N=N/c3ccc(Cl)cc3)c2n1	250
ClC(=C(Cl)c1ccccc1)c1ccccc1	144
